Data on 14 compounds can be found in patent US20240368158A1, “KINASE MODULATORS, COMPOSITIONS COMPRISING THE KINASE MODULATOR, AND METHODS OF USING THE SAME” (BIOFRONT LTD, priority 2021, published 2024).

For assay [1], the target named is T1, HPK1 (Homo sapiens, UniProt Q92918).
T1 construct: purchased Signal Chem M23-11G-10
T1 sequence (Q92918 1-346 limits assumed): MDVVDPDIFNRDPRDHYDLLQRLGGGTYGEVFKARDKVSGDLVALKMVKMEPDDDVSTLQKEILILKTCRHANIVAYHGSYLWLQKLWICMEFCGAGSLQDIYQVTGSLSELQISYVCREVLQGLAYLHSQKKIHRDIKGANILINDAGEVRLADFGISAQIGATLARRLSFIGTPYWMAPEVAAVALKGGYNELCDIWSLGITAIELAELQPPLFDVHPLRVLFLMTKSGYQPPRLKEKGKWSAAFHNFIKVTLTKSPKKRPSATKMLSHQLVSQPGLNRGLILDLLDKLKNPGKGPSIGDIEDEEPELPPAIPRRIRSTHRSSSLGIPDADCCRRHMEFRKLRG
The assay can be described thus: HPK1 enzyme inhibition assay (ADP-Glo). In kind it is biochemical. The following applies: MBP substrate, ATP. The protocol:
The compound was dissolved in 100% DMSO at the concentration of 10 mM. The HPK1 protein was purchased from Signal Chem (M23-11G-10). 2.5 μL per well of 2×HPK1 protein was added to assay plate containing the test compound, centrifuged at 1500 rpm for 1 minute, and then incubated at 25° C. for 60 minutes. MBP protein was purchased from Signal Chem (M42-51N) and ATP was purchased from Promega (V9102). The two were added 2.5 μL per well mixture of 2×MBP (0.2 ug/ul) and ATP (20 μM), centrifuged at 1500 rpm for 1 minute, then incubated at 25° C. for 60 minutes. Then added 5 μL of ADP-Glo from Promega (V9102) to the assay plate and depleted the unconsumed ATP for 60 minutes. Then centrifuged at 1500 rpm for 1 minute and incubated at 25° C. for 60 minutes. Finally, 10 μL of the kinase assay reagent from Promega (V9102) was added to the assay plate to convert ADP to ATP, centrifuged at 1500 rpm for 1 minute, incubate at 25° C. for 40 minutes. After 40 minutes incubation, the […] was determined. Based on the results, the IC50 value of the compound was calculated.

Assay [2] concerns HPK1 p-SLP-76 in Jurkat cells. The assay can be described thus: HPK1 p-SLP-76 inhibition assay in Jurkat cells (HTRF). As to conditions: Homo sapiens, 4 h compound, anti-CD3 stimulation 20 min. It is filed as cell-based. The protocol: Before compound treatment, Jurkat cells were starved in PRMI-1640 medium supplemented with 0.5% FBS overnight. The cell density was adjusted to 1*10^7 cells/mL in assay medium (RPMI-1640 no phenol red with 0.5% FBS) and 16 uL cell suspension was transferred per well to a 384-well plate (Corning #3765). […] of test compound was prepared in assay medium and 4 uL was added per well to the 384-well plate. The plate was then incubated at 37° C., 5% CO2 for 4 h. Jurkat cells in 384-well plate were stimulated with anti-CD3 (BD Biosciences #555329, final conc. is 10 ug/mL) for 20 min at 37° C., 5% CO2 by adding 4 uL 6× antibody solution per well. Phospho-SLP76 HTRF kit was purchased from Cisbio (63ADK076PEH). 8 uL 4× Lysis Buffer was added to 384-well plate after anti-CD3 stimulation. The plate was centrifuged at 1,000 rpm for 1 min, shaken at 250 rpm for 60 min and centrifuged again at 1,000 rpm for 5 min. Afterwards the cell lysates were transferred to the assay plate (Greiner #784075) with 16 uL per well. 4 uL detection antibody mix per well prepared in Detection Buffer was added to the assay plate, followed by centrifugation at 1,000 rpm for 1 min and incubation at 25° C. overnight. The fluorescence emission at two different wavelengths (665 nm and 620 nm) was read by an HTRF compatible microplate reader and the IC50 value of the compound was calculated.

Assay [3] addresses T2, FLT3-ITD (Homo sapiens, UniProt P36888).
T2 construct: The FLT3-ITD protein was purchased from Invitrogen (PV6190)
T2 sequence (P36888 1-993): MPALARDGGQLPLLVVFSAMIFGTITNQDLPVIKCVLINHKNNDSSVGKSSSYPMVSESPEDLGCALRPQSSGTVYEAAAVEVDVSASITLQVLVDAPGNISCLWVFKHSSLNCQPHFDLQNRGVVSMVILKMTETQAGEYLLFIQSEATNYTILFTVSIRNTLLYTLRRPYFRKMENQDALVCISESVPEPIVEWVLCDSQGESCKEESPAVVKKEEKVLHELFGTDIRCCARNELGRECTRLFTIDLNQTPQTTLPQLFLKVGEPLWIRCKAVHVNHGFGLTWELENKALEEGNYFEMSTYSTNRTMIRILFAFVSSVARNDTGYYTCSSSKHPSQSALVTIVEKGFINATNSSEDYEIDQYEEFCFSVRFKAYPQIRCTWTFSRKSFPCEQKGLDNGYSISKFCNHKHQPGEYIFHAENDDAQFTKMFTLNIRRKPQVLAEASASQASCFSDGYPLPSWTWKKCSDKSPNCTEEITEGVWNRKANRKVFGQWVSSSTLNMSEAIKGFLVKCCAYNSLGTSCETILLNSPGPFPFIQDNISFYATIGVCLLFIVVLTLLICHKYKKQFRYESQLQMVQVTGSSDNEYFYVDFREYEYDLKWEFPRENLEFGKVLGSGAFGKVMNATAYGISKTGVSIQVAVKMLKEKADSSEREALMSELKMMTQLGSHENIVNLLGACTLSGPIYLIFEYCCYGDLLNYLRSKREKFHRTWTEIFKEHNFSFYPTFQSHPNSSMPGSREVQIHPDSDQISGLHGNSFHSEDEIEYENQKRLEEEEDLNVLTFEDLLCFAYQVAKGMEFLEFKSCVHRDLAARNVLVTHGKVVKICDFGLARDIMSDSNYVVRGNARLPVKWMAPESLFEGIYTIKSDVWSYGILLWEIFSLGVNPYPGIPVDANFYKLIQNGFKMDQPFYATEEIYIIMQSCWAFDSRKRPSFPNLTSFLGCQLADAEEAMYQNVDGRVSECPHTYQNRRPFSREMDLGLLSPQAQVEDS
Put plainly: FLT3-ITD enzyme inhibition assay (HTRF KinEASE-TK). It is filed as biochemical. The following applies: FLT3-ITD protein, ATP 15 μM. The protocol:
The compound was dissolved in 100% DMSO at the concentration of 10 mM. The FLT3-ITD protein was purchased from Invitrogen (PV6190). 5 μL per well of 2×FLT3-ITD protein was added to assay plate containing the test compound, centrifuged at 1000 rpm for 1 minute, and then incubated at 25° C. for 15 minutes. HTRF KinEASE-TK kit was purchased from Cisbio (62TK0PEC) and ATP was purchased from Thermo Fisher Scientific (R0441). TK-Substrate-biotin and ATP were added 5 μL per well mixture of 2×TK-Substrate-biotin (final conc. is […]) and ATP (final conc. is 15 μM), centrifuged at 1000 rpm for 1 minute, then incubated at 25° C. for 60 minutes. Then added 10 μL of detection buffer (0.25×TK-antibody Eu3+-cryptate, 0.125 μM streptavidine-XL 665) to the assay plate and centrifuged at 1000 rpm for 1 minute then incubated at 25° C. for 60 minutes and 4° C. incubated for overnight, the product was determined. Based on the results, the IC50 value of the compound was calculated.

As for `CCc1c[nH]c2ncc(-c3cccc(N4CCN(C(=O)[C@@H](N)Cc5ccccc5)CC4=O)c3)c(Cl)c12` [Example 43, 4-(L-phenylalanyl)-1-(3-(4-chloro-3-ethyl-1H-pyrrolo[2,3-b]pyridin-5-yl)phenyl)piperazin-2-one], the IC50 in assay [1] was no more than 0.01 µM; in assay [2], 3 to 10 µM; in assay [3], 0.01 to 0.1 µM.

Regarding `CCc1c[nH]c2ncc(-c3cccc(N4CCN(C(=O)COc5cccc(C6O[C@H](CO)[C@@H](O)[C@H](O)[C@H]6O)c5)CC4=O)c3)c(Cl)c12` (stereo partly drawn) [Example 50, 1-(3-(4-chloro-3-ethyl-1H-pyrrolo[2,3-b]pyridin-5-yl)phenyl)-4-(2-(3-((3R,4R,5S,6R)-3,4,5-trihydroxy-6-(hydroxymethyl)tetrahydro-2H-pyran-2-yl)phenoxy)acetyl)piperazin-2-one], the IC50 in assay [1] was no more than 0.01 µM; in assay [2] it was 0.3 to 3 µM; in assay [3], no more than 0.01 µM.

In the case of `CN(C)CCCS(=O)(=O)N1CCN(c2cccc(-c3cnc4[nH]cc(CC(F)F)c4c3Cl)c2)C(=O)C1` [Example 60, 1-(3-(4-chloro-3-(2,2-difluoroethyl)-1H-pyrrolo[2,3-b]pyridin-5-yl)phenyl)-4-((3-(dimethylamino)propyl)sulfonyl)piperazin-2-one], the IC50 is no more than 0.01 µM in assay [1], 0.3 to 3 µM in assay [2] and no more than 0.01 µM in assay [3].

Regarding `CCc1c[nH]c2ncc(-c3cccc(N4CCN(C(=O)COc5ccc(C[C@@H](N)C(=O)O)cc5)CC4=O)c3)c(Cl)c12` [Example 45, (R)-2-amino-3-(4-(2-(4-(3-(4-chloro-3-ethyl-1H-pyrrolo[2,3-b]pyridin-5-yl)phenyl)-3-oxopiperazin-1-yl)-2-oxoethoxy)phenyl)propanoic acid], the IC50 is no more than 0.01 µM in assay [1], greater than 10 µM in assay [2] and no more than 0.01 µM in assay [3].

Consider `CCc1c[nH]c2ncc(-c3cccc(N4CCN(C(=O)COC)CC4=O)c3)c(Cl)c12` [Example 25, 1-(3-(4-chloro-3-ethyl-1H-pyrrolo[2,3-b]pyridin-5-yl)phenyl)-4-(2-methoxyacetyl)piperazin-2-one], for which the IC50 is no more than 0.01 µM in assay [1], no more than 0.3 µM in assay [2] and no more than 0.01 µM in assay [3].

Turning to `CS(=O)(=O)N1CCN(c2cccc(-c3cnc4[nH]cc(C5CC5)c4c3Cl)c2)C(=O)C1` [Example 53, 1-(3-(4-chloro-3-cyclopropyl-1H-pyrrolo[2,3-b]pyridin-5-yl)phenyl)-4-(methylsulfonyl)piperazin-2-one], the figures for the IC50 in assay [1], in assay [2] and in assay [3] were no more than 0.01 µM, 0.3 to 3 µM and no more than 0.01 µM, respectively.

Regarding `CCc1c[nH]c2ncc(-c3cccc(N4CCN(C(=O)CNC(=O)[C@@H](N)C(C)C)CC4=O)c3)c(Cl)c12` [Example 44, (S)-2-amino-N-(2-(4-(3-(4-chloro-3-ethyl-1H-pyrrolo[2,3-b]pyridin-5-yl)phenyl)-3-oxopiperazin-1-yl)-2-oxoethyl)-3-methylbutanamide], the results for the IC50 in assay [1], in assay [2] and in assay [3] were no more than 0.01 µM, 0.3 to 3 µM and no more than 0.01 µM, respectively.

In the case of `COCC(=O)N1CCN(c2cccc(-c3cnc4[nH]cc(C#Cc5cccnc5)c4c3Cl)c2)C(=O)C1` [Example 29, 1-(3-(4-chloro-3-(pyridin-3-ylethynyl)-1H-pyrrolo[2,3-b]pyridin-5-yl)phenyl)-4-(2-methoxyacetyl)piperazin-2-one], the IC50 in assay [1] was no more than 0.01 µM; in assay [2] it was 0.3 to 3 µM.

In the case of `O=C1CNCCN1c1cccc(-c2cnc3[nH]cc(C4CC4)c3c2Cl)c1` [Example 4, 1-(3-(4-chloro-3-cyclopropyl-1H-pyrrolo[2,3-b]pyridin-5-yl)phenyl) piperazin-2-one], the figures for the half-maximal inhibitory concentration (IC50) in assay [1] and in assay [2] were no more than 0.01 µM and 0.3 to 3 µM, respectively.

`O=C1CN(S(=O)(=O)CCCN2CC(F)C2)CCN1c1cccc(-c2cnc3[nH]cc(C4CC4)c3c2Cl)c1` [Example 58, 1-(3-(4-chloro-3-cyclopropyl-1H-pyrrolo[2,3-b]pyridin-5-yl)phenyl)-4-((3-(3-fluoroazetidin-1-yl)propyl)sulfonyl)piperazin-2-one]: the IC50 in assay [1] is no more than 0.01 µM; in assay [2] it was 0.3 to 3 µM.

As for `CCc1c[nH]c2ncc(-c3csc(N4CCNCC4=O)n3)c(Cl)c12` [Example 10, 1-(4-(4-chloro-3-ethyl-1H-pyrrolo[2,3-b]pyridin-5-yl)thiazol-2-yl)piperazin-2-one], the IC50 in assay [1] was in the range of 0.01 to 0.1 µM; in assay [2] it was 0.3 to 3 µM.

In the case of `CCc1c[nH]c2ncc(-c3cccc(N4CCNCC4=O)n3)c(Cl)c12` [Example 9, 1-(6-(4-chloro-3-ethyl-1H-pyrrolo[2,3-b]pyridin-5-yl)pyridin-2-yl)piperazin-2-one], the IC50 is no more than 0.01 µM in assay [1] and 0.3 to 3 µM in assay [2].

As to `CCc1c[nH]c2ncc(-c3cccc(N4CCC[C@@H](CO)C4=O)c3)c(Cl)c12` [Example 24, (S)-1-(3-(4-chloro-3-ethyl-1H-pyrrolo[2,3-b]pyridin-5-yl)phenyl)-3-(hydroxymethyl)piperidin-2-one], the IC50 in assay [1] is no more than 0.01 µM; in assay [2], 0.3 to 3 µM.

As for `O=C1CNCCN1c1nc(-c2cnc3[nH]cc(C4CC4)c3c2Cl)cs1` [Example 11, 1-(4-(4-chloro-3-cyclopropyl-1H-pyrrolo[2,3-b]pyridin-5-yl)thiazol-2-yl)piperazin-2-one], the figures for the IC50 in assay [1] and in assay [2] were 0.01 to 0.1 µM and 3 to 10 µM, respectively.
